Values of other authors as cited in US8030335B2, “Use of liver X receptor agonists” (Laboratoires Fournier S.A., priority 2005, dated 2011).

Columns and labels:
db/db mice = conditions: cited from earlier work
[1] = test system: pancreatic islets or insulin-secreting MIN6 cells; conditions: culture with compound, cited from earlier work

O=S(=O)(c1ccccc1)N(CC(F)(F)F)c1ccc(C(O)(C(F)(F)F)C(F)(F)F)cc1 [T0901317]
plasma glucose level (db/db mice; db/db mice (not in normal mice)): lower plasma glucose level | expression of PEPCK (db/db mice; limits hepatic glucose output): inhibits | islet insulin content [1]: increase | glucose-dependent insulin secretion ([1]; effect only after >72 h of islet culture): increase
